Measured values published in patent publication US7462600B2, “Macrolides” (Pfizer Inc, priority 2004, dated 2008).
Values after ≈ are worked out from the molar mass of the structure shown.

Columns and labels:
Type in all cases: cell-based
[1] = system: Haemophilus influenzae 1218; assay: MIC, microtiter broth dilution (NCCLS M100-S14), H. influenzae 1218 (susceptible); conditions: H. influenzae 1218 (susceptible)
Summary of the method: (§1)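 NCCLS M100-S14 rules govern how the microdilution MICs are interpreted. Each compound starts as a 40 mg/ml solution in DMSO before dilution.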

[2] = system: Streptococcus pyogenes 1079; assay: MIC, microtiter broth dilution (NCCLS M100-S14), S. pyogenes 1079 (ermB); conditions: S. pyogenes 1079 (ermB)
Summary of the method: as §1

[3] = system: Streptococcus pneumoniae 1095; conditions: S. pneumoniae 1095 (ermB); microtiter broth dilution
Summary of the method: as §1

[4] = system: Streptococcus pneumoniae 1175; conditions: S. pneumoniae 1175 (mefA); microtiter broth dilution
Summary of the method: as §1

[5] = system: Streptococcus pneumoniae 1016; assay: MIC, microtiter broth dilution (NCCLS M100-S14), S. pneumoniae 1016 (susceptible); conditions: S. pneumoniae 1016 (susceptible)
Summary of the method: as §1

SMILES	MIC H. influenzae 1218 [1] [µg/mL]	MIC S. pyogenes 1079 [2] [µg/mL]	MIC S. pneumo. 1095 [3] [µg/mL]	MIC S. pneumo. 1175 [4] [µg/mL]	MIC S. pneumo. 1016 [5] [µg/mL]
CCC1OC(=O)C(C)C(=O)C(C)C(OC2OC(C)CC(N(C)C)C2O)C(C)(OC)CC(C)C(=O)C(C)C2N(CC3CCN(Cc4cnn(-c5ccccn5)c4)C3)C(=O)OC12C (stereo not shown) [11.14]	2 (≈ 2.34 µM)	32 (≈ 37.5 µM)	0.25 (≈ 0.293 µM)	0.25 (≈ 0.293 µM)	<0.06
CCC1OC(=O)C(C)C(=O)C(C)C(OC2OC(C)CC(N(C)C)C2O)C(C)(OC)CC(C)C(=O)C(C)C2N(CC3CCN(Cc4cnn(-c5cccnc5)c4)C3)C(=O)OC12C (stereo not shown) [11.15]	2 (≈ 2.34 µM)	64 (≈ 75 µM)	<0.06	0.5 (≈ 0.586 µM)	<0.06
CCC1OC(=O)C(C)C(=O)C(C)C(OC2OC(C)CC(N(C)C)C2O)C(C)(OC)CC(C)C(=O)C(C)C2N(CC3CCN(C(=O)c4cc5ccccn5n4)C3)C(=O)OC12C (stereo not shown) [11.16]	8 (≈ 9.52 µM)	>64.00	8 (≈ 9.52 µM)	0.5 (≈ 0.595 µM)	<0.06
CCC1OC(=O)C(C)C(=O)C(C)C(OC2OC(C)CC(N(C)C)C2O)C(C)(OC)CC(C)C(=O)C(C)C2N(CC3CCN(C(=O)c4cnc5ccccc5c4)C3)C(=O)OC12C (stereo not shown) [11.17]	4 (≈ 4.7 µM)	>64.00	8 (≈ 9.4 µM)	2 (≈ 2.35 µM)	<0.06
CCC1OC(=O)C(C)C(=O)C(C)C(OC2OC(C)CC(N(C)C)C2O)C(C)(OC)CC(C)C(=O)C(C)C2N(CC3CCN(C(=O)c4ccc5ncccc5c4)C3)C(=O)OC12C (stereo not shown) [11.18]	2 (≈ 2.35 µM)	>64.00	8 (≈ 9.4 µM)	2 (≈ 2.35 µM)	<0.06
CCC1OC(=O)C(C)C(=O)C(C)C(OC2OC(C)CC(N(C)C)C2O)C(C)(OC)CC(C)C(=O)C(C)C2N(CC3CCCN3Cc3cccc(OC)n3)C(=O)OC12C (stereo not shown) [12.01]	8 (≈ 9.79 µM)	>64.00	2 (≈ 2.45 µM)	1 (≈ 1.22 µM)	<0.06
CCC1OC(=O)C(C)C(=O)C(C)C(OC2OC(C)CC(N(C)C)C2O)C(C)(OC)CC(C)C(=O)C(C)C2N(CC3CCCN3Cc3cccnc3OC)C(=O)OC12C (stereo not shown) [12.02]	16 (≈ 19.6 µM)	>64.00	8 (≈ 9.79 µM)	8 (≈ 9.79 µM)	<0.06
CCC1OC(=O)C(C)C(=O)C(C)C(OC2OC(C)CC(N(C)C)C2O)C(C)(OC)CC(C)C(=O)C(C)C2N(CC3CCCN3Cc3ccc(OC)nc3)C(=O)OC12C (stereo not shown) [12.03]	4 (≈ 4.9 µM)	>64.00	>64.00	0.5 (≈ 0.612 µM)	<0.06
CCC1OC(=O)C(C)C(=O)C(C)C(OC2OC(C)CC(N(C)C)C2O)C(C)(OC)CC(C)C(=O)C(C)C2N(CC3CCCN3Cc3ccno3)C(=O)OC12C (stereo not shown) [12.04]	2 (≈ 2.57 µM)	>64.00	4 (≈ 5.15 µM)	1 (≈ 1.29 µM)	<0.06
CCC1OC(=O)C(C)C(=O)C(C)C(OC2OC(C)CC(N(C)C)C2O)C(C)(OC)CC(C)C(=O)C(C)C2N(CC3CCCN3C(=O)c3cnc4ccccc4c3)C(=O)OC12C (stereo not shown) [12.05]	4 (≈ 4.7 µM)	>64.00	1 (≈ 1.18 µM)	1 (≈ 1.18 µM)	<0.06
CCC1OC(=O)C(C)C(=O)C(C)C(OC2OC(C)CC(N(C)C)C2O)C(C)(OC)CC(C)C(=O)C(C)C2N(CC3CCCN3C(=O)c3ccc4ncccc4c3)C(=O)OC12C (stereo not shown) [12.06]	2 (≈ 2.35 µM)	>64.00	0.25 (≈ 0.294 µM)	1 (≈ 1.18 µM)	<0.06
CCC1OC(=O)C(C)C(=O)C(C)C(OC2OC(C)CC(N(C)C)C2O)C(C)(OC)CC(C)C(=O)C(C)C2N(CC3CCCN3C(=O)c3ccnc4ccccc34)C(=O)OC12C (stereo not shown) [12.08]	16 (≈ 18.8 µM)	>64.00	1 (≈ 1.18 µM)	2 (≈ 2.35 µM)	<0.06
CCC1OC(=O)C(C)C(=O)C(C)C(OC2OC(C)CC(N(C)C)C2O)C(C)(OC)CC(C)C(=O)C(C)C2N(CC3CCCN3C(=O)c3cc4ccccc4cn3)C(=O)OC12C (stereo not shown) [12.09]	2 (≈ 2.35 µM)	>64.00	1 (≈ 1.18 µM)	1 (≈ 1.18 µM)	<0.06
CCC1OC(=O)C(C)C(=O)C(C)C(OC2OC(C)CC(N(C)C)C2O)C(C)(OC)CC(C)C(=O)C(C)C2N(CC3CCCN3C(=O)c3cccc4cccnc34)C(=O)OC12C (stereo not shown) [12.10]	8 (≈ 9.4 µM)	>64.00	0.5 (≈ 0.588 µM)	2 (≈ 2.35 µM)	<0.06
CCC1OC(=O)C(C)C(=O)C(C)C(OC2OC(C)CC(N(C)C)C2O)C(C)(OC)CC(C)C(=O)C(C)C2N(CC3CCCN3C(=O)c3ccc4cccnc4c3)C(=O)OC12C (stereo not shown) [12.12]	2 (≈ 2.35 µM)	>64.00	<0.06	1 (≈ 1.18 µM)	<0.06
CCC1OC(=O)C(C)C(=O)C(C)C(OC2OC(C)CC(N(C)C)C2O)C(C)(OC)CC(C)C(=O)C(C)C2N(CC3CCN(Cc4c[nH]c5ncccc45)C3)C(=O)OC12C (stereo not shown) [13.01]	1 (≈ 1.21 µM)	>64.00	0.25 (≈ 0.303 µM)	1 (≈ 1.21 µM)	<0.06
CCC1OC(=O)C(C)C(=O)C(C)C(OC2OC(C)CC(N(C)C)C2O)C(C)(OC)CC(C)C(=O)C(C)C2N(CC3CCN(Cc4c[nH]c5cc(=O)[nH]cc45)C3)C(=O)OC12C (stereo not shown) [13.02]	16 (≈ 19 µM)	64 (≈ 76 µM)	16 (≈ 19 µM)	4 (≈ 4.75 µM)	0.12 (≈ 0.143 µM)
CCC1OC(=O)C(C)C(=O)C(C)C(OC2OC(C)CC(N(C)C)C2O)C(C)(OC)CC(C)C(=O)C(C)C2N(CC3CCN(Cc4c[nH]c5cnccc45)C3)C(=O)OC12C (stereo not shown) [13.03]	2 (≈ 2.42 µM)	>64.00	1 (≈ 1.21 µM)	4 (≈ 4.84 µM)	<0.06
CCC1OC(=O)C(C)C(=O)C(C)C(OC2OC(C)CC(N(C)C)C2O)C(C)(OC)CC(C)C(=O)C(C)C2N(CC3CCN(Cc4ccc5cccc(O)c5n4)C3)C(=O)OC12C (stereo not shown) [13.04]	1 (≈ 1.17 µM)	64 (≈ 75 µM)	1 (≈ 1.17 µM)	0.25 (≈ 0.293 µM)	<0.06
CCC1OC(=O)C(C)C(=O)C(C)C(OC2OC(C)CC(N(C)C)C2O)C(C)(OC)CC(C)C(=O)C(C)C2N(CC3CCN(Cc4ccc(-c5ccccn5)cc4)C3)C(=O)OC12C (stereo not shown) [13.05]	4 (≈ 4.63 µM)	>64.00	16 (≈ 18.5 µM)	0.5 (≈ 0.579 µM)	<0.06
CCC1OC(=O)C(C)C(=O)C(C)C(OC2OC(C)CC(N(C)C)C2O)C(C)(OC)CC(C)C(=O)C(C)C2N(CC3CCN(Cc4ccno4)C3)C(=O)OC12C (stereo not shown) [13.06]	2 (≈ 2.57 µM)	>64.00	>64.00	0.5 (≈ 0.644 µM)	<0.06
CCC1OC(=O)C(C)C(=O)C(C)C(OC2OC(C)CC(N(C)C)C2O)C(C)(OC)CC(C)C(=O)C(C)C2N(CC3CCN(Cc4c[nH]nn4)C3)C(=O)OC12C (stereo not shown) [13.07]	2 (≈ 2.57 µM)	>64.00	>64.00	4 (≈ 5.15 µM)	<0.06
CCC1OC(=O)C(C)C(=O)C(C)C(OC2OC(C)CC(N(C)C)C2O)C(C)(OC)CC(C)C(=O)C(C)C2N(CC3CCN(Cc4c[nH]c(-c5ccccc5)n4)C3)C(=O)OC12C (stereo not shown) [13.08]	2 (≈ 2.35 µM)	64 (≈ 75.1 µM)	4 (≈ 4.69 µM)	0.5 (≈ 0.587 µM)	<0.06
CCC1OC(=O)C(C)C(=O)C(C)C(OC2OC(C)CC(N(C)C)C2O)C(C)(OC)CC(C)C(=O)C(C)C2N(CC3CCN(C(=O)c4ccc5cnccc5n4)C3)C(=O)OC12C (stereo not shown) [13.09]	4 (≈ 4.69 µM)	>64.00	>64.00	1 (≈ 1.17 µM)	<0.06
CCC1OC(=O)C(C)C(=O)C(C)C(OC2OC(C)CC(N(C)C)C2O)C(C)(OC)CC(C)C(=O)C(C)C2N(CC3CCN(C(=O)c4cnc5ccccc5c4)C3)C(=O)OC12C (stereo not shown) [13.10]	4 (≈ 4.7 µM)	>64.00	>64.00	0.25 (≈ 0.294 µM)	<0.06
CCC1OC(=O)C(C)C(=O)C(C)C(OC2OC(C)CC(N(C)C)C2O)C(C)(OC)CC(C)C(=O)C(C)C2N(CC3CCN(C(=O)c4cccc5cccnc45)C3)C(=O)OC12C (stereo not shown) [13.11]	4 (≈ 4.7 µM)	>64.00	16 (≈ 18.8 µM)	4 (≈ 4.7 µM)	<0.06
